Data set [1] deals with S. cerevisiae wildtype BY4743. The data set is described as follows: growth-inhibitory potency on wildtype S. cerevisiae. The note with it: Saccharomyces cerevisiae, read-out: IC50 [μM] S. cerevisiae wildtype, cell based growth assay, wildtype.
In data set [2] the test system is S. cerevisiae BY4743Δ8. Kind of data set: growth assay, wildtype versus efflux-deficient wildtypeΔ8. The class given is cell-based, Saccharomyces cerevisiae. Conditions: ratio of growth IC50 wildtype to wildtypeΔ8.
Data set [3] concerns S. cerevisiae SEC14/sec14. The data set is described as follows: growth assay with heterozygous SEC14 deletion strain. The note with it: for IC50: Saccharomyces cerevisiae, SEC14/SEC14, read-out: IC50 [μM] S. cerevisiae SEC14/sec14. In kind it is cell-based, Saccharomyces cerevisiae.
Another data set relates to HCT116 cells. Kind of data set: CellTiter-Glo luminescent cell viability assay. In kind it is cell-based. The note with it: Homo sapiens, HCT-116, 72 h, read-out: IC50 [μM] HCT116.
A further data set deals with Sec14p (Saccharomyces cerevisiae, UniProt P24280). Kind of data set: in vitro [3H]-PtdIns lipid transfer assay, recombinant Sec14p. In kind it is biochemical, S. cerevisiae. Conditions: for inhibition of Sec14p-mediated PtdIns-transfer (in words): 20 μM SMI end-point assay.
The target of a further data set is Sec14p of C. glabrata (Candida glabrata, UniProt P53989). Kind of data set: in vitro [3H]-PtdIns lipid transfer assay, C. glabrata Sec14p. The class given is biochemical.
The next data set concerns the target Sec14p of C. albicans (Candida albicans, UniProt P46250). The data set is described as follows: in vitro [3H]-PtdIns lipid transfer assay, C. albicans Sec14p. The class given is biochemical. The note with it: for inhibition of PtdIns-transfer by C. albicans protein (in words): tested concentration range.
Data set [4] is described as follows: kinetic aqueous solubility. The class given is physicochemical. Conditions: pH 7.4.
The test system of data set [5] is cki1 and kes1 “bypass Sec14p” mutants. The data set is described as follows: spot growth assay of bypass Sec14p mutants. The class given is cell-based, Saccharomyces cerevisiae. The note with it: 20 μM on agar plates.
The target in the next data set is T1, PITPα (Mus musculus, UniProt P53810).
T1 sequence (P53810 1-271): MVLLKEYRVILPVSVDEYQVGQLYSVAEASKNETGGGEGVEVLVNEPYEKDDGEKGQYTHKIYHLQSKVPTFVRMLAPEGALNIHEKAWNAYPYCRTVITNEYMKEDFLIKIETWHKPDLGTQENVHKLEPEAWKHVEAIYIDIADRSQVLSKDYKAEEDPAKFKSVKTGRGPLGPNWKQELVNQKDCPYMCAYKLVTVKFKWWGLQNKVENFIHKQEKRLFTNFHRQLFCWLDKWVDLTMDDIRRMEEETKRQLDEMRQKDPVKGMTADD
The data set is described as follows: in vitro [3H]-PtdIns lipid transfer assay, mammalian PITPα. Conditions: 20 μM.

The subject of data set [6] is mutant Sec14ps (Y151H, V154G, V155A, S173L, S201G). Kind of data set: [3H]-PtdIns transfer assay with recombinant mutant Sec14ps. In kind it is biochemical, S. cerevisiae. The note with it: all mutant proteins but one.
The subject of another data set is Sec14p^V155A. The data set is described as follows: [3H]-PtdIns transfer assay with recombinant Sec14p V155A. In kind it is biochemical, S. cerevisiae.
In data set [7] the test system is S. cerevisiae BY4743Δ8. Kind of data set: MIC on solid medium. In kind it is cell-based, Saccharomyces cerevisiae. The note with it: 72 hours, 30°C.

The record followed here is article PMC5856591 (Cell chemical biology, 2018).

A value given as a limit tells only on which side of the number the result lay.

Sequence of Sec14p of C. albicans (P46250 whole entry): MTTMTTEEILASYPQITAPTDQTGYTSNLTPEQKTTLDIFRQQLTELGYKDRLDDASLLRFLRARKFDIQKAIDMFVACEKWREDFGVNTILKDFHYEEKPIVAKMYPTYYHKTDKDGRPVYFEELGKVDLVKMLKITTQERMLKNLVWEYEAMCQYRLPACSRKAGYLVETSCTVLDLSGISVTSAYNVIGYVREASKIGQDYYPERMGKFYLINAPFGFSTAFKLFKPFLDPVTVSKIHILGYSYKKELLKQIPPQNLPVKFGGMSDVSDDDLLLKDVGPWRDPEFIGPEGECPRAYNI
Sequence of Sec14p (P24280 whole entry): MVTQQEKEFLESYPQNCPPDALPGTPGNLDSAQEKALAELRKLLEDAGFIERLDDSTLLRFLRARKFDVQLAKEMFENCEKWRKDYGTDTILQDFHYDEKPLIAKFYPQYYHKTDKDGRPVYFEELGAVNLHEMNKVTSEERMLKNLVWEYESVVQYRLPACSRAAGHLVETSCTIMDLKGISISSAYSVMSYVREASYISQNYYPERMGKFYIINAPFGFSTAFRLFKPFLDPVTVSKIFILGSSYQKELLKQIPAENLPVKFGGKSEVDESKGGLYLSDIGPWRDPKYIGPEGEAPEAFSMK
Sequence of Sec14p of C. glabrata (P53989 whole entry): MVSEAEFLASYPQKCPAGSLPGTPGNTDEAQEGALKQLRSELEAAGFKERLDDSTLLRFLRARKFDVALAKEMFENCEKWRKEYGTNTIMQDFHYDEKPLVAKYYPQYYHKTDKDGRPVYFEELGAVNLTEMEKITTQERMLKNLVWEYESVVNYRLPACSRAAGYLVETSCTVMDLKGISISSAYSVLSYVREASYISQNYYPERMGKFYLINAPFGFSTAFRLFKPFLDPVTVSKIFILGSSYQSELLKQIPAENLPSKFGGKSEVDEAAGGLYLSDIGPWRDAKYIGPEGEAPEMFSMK

Consider `O=C(NCc1ccc2c(c1)OCO2)c1ncc(Br)cc1F` [Compound 2], for which the IC50 was 28.5 µM in data set [1]; 9.4 µM in data set [3]; above 100 µM in the data set with HCT116 cells; 6.7 µM on Sec14p; 10.9 µM against Sec14p of C. glabrata; above 100 µM on Sec14p of C. albicans. Further, in the data set with S. cerevisiae BY4743Δ8 [2], the “fold IC50 shift S. cerevisiae wildtype/wildtypeΔ8” value stood at 2.7x fold. Besides, in data set [3], the “fitness of SEC14/sec14Δ heterozygote relative to isogenic wildtype (in words)” value is given as “decreased fitness”. Moreover, the “inhibition of Sec14p-mediated PtdIns-transfer (in words)” value at Sec14p was “clear inhibition”. Further, at Sec14p of C. albicans, the “inhibition of PtdIns-transfer by C. albicans protein (in words)” value is on record as “did not inhibit”. Further, in [4], the “solubility in pure aqueous solutions (in words)” value was “better solubility than compound 3”. Further, the “growth of bypass Sec14p mutants under compound challenge (in words)” value in data set [5] is on record as “indifferent to challenge”. In addition, the “inhibition of PtdIns-transfer by mammalian PITPα (in words)” value against PITPα was “no such inhibitory effects”.
On to `O=C(NCc1ccc2c(c1)OCO2)c1ccc(Br)cc1F` [Compound 3], for which the figures for the IC50 (in data set [1]; in data set [3]; with HCT116 cells) were 7 µM, 1.7 µM and above 100 µM, respectively. The “fold IC50 shift S. cerevisiae wildtype/wildtypeΔ8” value in the data set with S. cerevisiae BY4743Δ8 [2] is 2.8x fold. Also, in [3], the “fitness of SEC14/sec14Δ heterozygote relative to isogenic wildtype (in words)” value is “decreased fitness”. Besides, the “inhibition of Sec14p-mediated PtdIns-transfer (in words)” value at Sec14p was “clear inhibition”. The “inhibition of PtdIns-transfer by C. albicans protein (in words)” value at Sec14p of C. albicans is recorded as “did not inhibit”. Further, the “sensitivity of mutant Sec14ps other than V155A (in words)” value in [6] was “essentially indifferent”. The “growth of bypass Sec14p mutants under compound challenge (in words)” value in data set [5] is given as “indifferent to challenge”. The “increase in IC50 of Sec14p^V155A relative to wild-type Sec14p” value in the data set on Sec14p^V155A was 17 fold. For the same compound, the “inhibition of PtdIns-transfer by mammalian PITPα (in words)” value against PITPα is recorded as “no such inhibitory effects”.
For the compound `CC[C@@H]([C@H](C)O)n1ncn(-c2ccc(N3CCN(c4ccc(OC[C@@H]5CO[C@@](Cn6cncn6)(c6ccc(F)cc6F)C5)cc4)CC3)cc2)c1=O` [Posaconazole], the “Minimal inhibitory concentration S. cerevisiae BY4743Δ8” value with S. cerevisiae BY4743Δ8 [7] is below 0.3 µM.
